Measurements: PubChem BioAssay (NCI)
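These data come from cells grown in 96-well plates and exposed to compound for 48 hours at five concentrations. The concentration for full growth arrest is given as TGI.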

Legend:
Assay in all cases: inhibition of tumour cell growth, NCI panel, 48 h
MDA-MB-231 breast = test system: MDA-MB-231 breast
NCI-H522 lung = test system: NCI-H522 lung
SN12C renal = test system: SN12C renal
MCF7 breast = test system: MCF7 breast
OVCAR-4 ovarian = test system: OVCAR-4 ovarian
SK-MEL-28 melanoma = test system: SK-MEL-28 melanoma
BT-549 breast = test system: BT-549 breast
HCT-116 colon = test system: HCT-116 colon
NCI-H23 lung = test system: NCI-H23 lung
HOP-92 NSCLC = test system: HOP-92 NSCLC
HT29 colon = test system: HT29 colon
UACC-62 melanoma = test system: UACC-62 melanoma
PC-3 prostate = test system: PC-3 prostate
A498 renal = test system: A498 renal
EKVX NSCLC = test system: EKVX NSCLC
SF-268 CNS = test system: SF-268 CNS
TK-10 renal = test system: TK-10 renal
SF-539 CNS = test system: SF-539 CNS

CCOC(=O)CN1CC(C2=C(O)CN(CC(=O)OCC)C2=O)=CC1=O
TGI (MDA-MB-231 breast): > 100 µM
TGI (NCI-H522 lung): > 100 µM
TGI (SN12C renal): > 100 µM
TGI (MCF7 breast): > 100 µM
TGI (OVCAR-4 ovarian): > 100 µM
TGI (SK-MEL-28 melanoma): > 100 µM
TGI (BT-549 breast): > 100 µM
TGI (HCT-116 colon): > 100 µM
TGI (NCI-H23 lung): > 100 µM
TGI (HOP-92 NSCLC): > 100 µM
TGI (HT29 colon): > 100 µM
TGI (UACC-62 melanoma): > 100 µM
TGI (PC-3 prostate): > 100 µM
TGI (A498 renal): > 100 µM
TGI (EKVX NSCLC): > 100 µM
TGI (SF-268 CNS): > 100 µM
TGI (TK-10 renal): > 100 µM
TGI (SF-539 CNS): > 100 µM

CC1CN=C(c2cccc(-c3nc(-c4cccc(C5=NCC(C)N5)c4)nc(N(C)C)n3)c2)N1 (stereo not given)
TGI (MDA-MB-231 breast): 3.48 µM
TGI (NCI-H522 lung): 2.51 µM
TGI (SN12C renal): 3.46 µM
TGI (MCF7 breast): 3.33 µM
TGI (OVCAR-4 ovarian): 2.72 µM
TGI (SK-MEL-28 melanoma): 13.2 µM
TGI (BT-549 breast): 13.9 µM
TGI (HCT-116 colon): 2.49 µM
TGI (NCI-H23 lung): 7.77 µM
TGI (HOP-92 NSCLC): 20.3 µM
TGI (HT29 colon): 5.48 µM
TGI (UACC-62 melanoma): 3.83 µM
TGI (PC-3 prostate): 3.31 µM
TGI (A498 renal): 5.99 µM
TGI (EKVX NSCLC): 8.64 µM
TGI (SF-268 CNS): 10.7 µM
TGI (TK-10 renal): 9.76 µM
TGI (SF-539 CNS): 1.66 µM

Cc1cccc2c(N)c3cccc(C(=O)NCC[N+]4(Cc5ccc([N+](=O)[O-])cc5)CCOCC4)c3nc12
TGI (MDA-MB-231 breast): > 86.2 µM
TGI (NCI-H522 lung): > 84.9 µM
TGI (SN12C renal): > 100 µM
TGI (MCF7 breast): > 100 µM
TGI (OVCAR-4 ovarian): > 100 µM
TGI (SK-MEL-28 melanoma): > 100 µM
TGI (BT-549 breast): > 100 µM
TGI (HCT-116 colon): 58.5 µM
TGI (NCI-H23 lung): > 100 µM
TGI (HOP-92 NSCLC): 71.8 µM
TGI (HT29 colon): > 100 µM
TGI (UACC-62 melanoma): > 100 µM
TGI (PC-3 prostate): > 100 µM
TGI (A498 renal): > 100 µM
TGI (EKVX NSCLC): > 100 µM
TGI (SF-268 CNS): > 100 µM
TGI (TK-10 renal): > 100 µM
TGI (SF-539 CNS): > 100 µM

COc1ccc2c3c1OC1C34CCN(C)C(C2)C4=CC(I)C1(OC)OC (stereo not given)
TGI (MDA-MB-231 breast): 36 µM
TGI (NCI-H522 lung): 15.3 µM
TGI (SN12C renal): 18.9 µM
TGI (MCF7 breast): 19 µM
TGI (OVCAR-4 ovarian): 30 µM
TGI (SK-MEL-28 melanoma): 25.9 µM
TGI (BT-549 breast): 36.2 µM
TGI (HCT-116 colon): 14.6 µM
TGI (NCI-H23 lung): 21.1 µM
TGI (HOP-92 NSCLC): 24.5 µM
TGI (HT29 colon): 22 µM
TGI (UACC-62 melanoma): 28 µM
TGI (PC-3 prostate): 23.2 µM
TGI (A498 renal): 56.7 µM
TGI (EKVX NSCLC): 33.8 µM
TGI (SF-268 CNS): 42.8 µM
TGI (TK-10 renal): 27.8 µM
TGI (SF-539 CNS): 40.6 µM

CCOC(=O)C(O)(C(=O)OCC)c1cc(C(C)(C)C)c(O)c(C(C)(C)C)c1
TGI (MDA-MB-231 breast): > 100 µM
TGI (NCI-H522 lung): > 100 µM
TGI (SN12C renal): > 100 µM
TGI (MCF7 breast): > 100 µM
TGI (OVCAR-4 ovarian): > 100 µM
TGI (SK-MEL-28 melanoma): > 100 µM
TGI (BT-549 breast): > 100 µM
TGI (HCT-116 colon): > 100 µM
TGI (NCI-H23 lung): > 100 µM
TGI (HOP-92 NSCLC): > 100 µM
TGI (HT29 colon): > 100 µM
TGI (UACC-62 melanoma): > 100 µM
TGI (PC-3 prostate): > 100 µM
TGI (A498 renal): > 100 µM
TGI (EKVX NSCLC): > 100 µM
TGI (SF-268 CNS): > 100 µM
TGI (TK-10 renal): > 100 µM
TGI (SF-539 CNS): 87.8 µM

CC[P+]1(c2ccccc2)[C@@H](C)CC[C@@H]1C
TGI (MDA-MB-231 breast): > 100 µM
TGI (NCI-H522 lung): > 100 µM
TGI (SN12C renal): > 100 µM
TGI (MCF7 breast): > 100 µM
TGI (OVCAR-4 ovarian): > 100 µM
TGI (SK-MEL-28 melanoma): > 100 µM
TGI (BT-549 breast): > 100 µM
TGI (HCT-116 colon): > 100 µM
TGI (NCI-H23 lung): > 100 µM
TGI (HOP-92 NSCLC): > 100 µM
TGI (HT29 colon): > 100 µM
TGI (UACC-62 melanoma): > 100 µM
TGI (PC-3 prostate): > 100 µM
TGI (A498 renal): > 100 µM
TGI (EKVX NSCLC): > 100 µM
TGI (SF-268 CNS): > 100 µM
TGI (TK-10 renal): > 100 µM
TGI (SF-539 CNS): > 100 µM

Cc1ccc2oc3c(c(Br)c(Br)n3C)c(=O)c2c1
TGI (MDA-MB-231 breast): 43.5 µM
TGI (NCI-H522 lung): > 100 µM
TGI (SN12C renal): 47 µM
TGI (MCF7 breast): > 100 µM
TGI (OVCAR-4 ovarian): > 100 µM
TGI (SK-MEL-28 melanoma): > 100 µM
TGI (BT-549 breast): > 100 µM
TGI (HCT-116 colon): 33.9 µM
TGI (NCI-H23 lung): 46.3 µM
TGI (HOP-92 NSCLC): 38.1 µM
TGI (HT29 colon): > 100 µM
TGI (UACC-62 melanoma): 52.3 µM
TGI (PC-3 prostate): > 100 µM
TGI (A498 renal): 41.3 µM
TGI (EKVX NSCLC): 44.2 µM
TGI (SF-268 CNS): > 100 µM
TGI (TK-10 renal): 38.9 µM
TGI (SF-539 CNS): 37.3 µM

NC(Cc1ncccn1)C(=O)O (stereo not given)
TGI (MDA-MB-231 breast): > 100 µM
TGI (NCI-H522 lung): > 100 µM
TGI (SN12C renal): > 100 µM
TGI (MCF7 breast): > 100 µM
TGI (OVCAR-4 ovarian): > 100 µM
TGI (SK-MEL-28 melanoma): > 100 µM
TGI (BT-549 breast): > 100 µM
TGI (HCT-116 colon): > 100 µM
TGI (NCI-H23 lung): > 100 µM
TGI (HOP-92 NSCLC): > 100 µM
TGI (HT29 colon): > 100 µM
TGI (UACC-62 melanoma): > 100 µM
TGI (PC-3 prostate): > 100 µM
TGI (A498 renal): > 100 µM
TGI (EKVX NSCLC): > 100 µM
TGI (SF-268 CNS): > 100 µM
TGI (TK-10 renal): > 100 µM
TGI (SF-539 CNS): > 100 µM

O=[N+]([O-])/C(C(Cl)=C(Cl)Cl)=C(\N1CCCCC1)n1nnc2ccccc21
TGI (MDA-MB-231 breast): 34.5 µM
TGI (NCI-H522 lung): 40 µM
TGI (SN12C renal): 33.7 µM
TGI (MCF7 breast): > 69.4 µM
TGI (OVCAR-4 ovarian): > 100 µM
TGI (SK-MEL-28 melanoma): 48.3 µM
TGI (BT-549 breast): 49.4 µM
TGI (HCT-116 colon): 33.4 µM
TGI (NCI-H23 lung): 38.8 µM
TGI (HOP-92 NSCLC): 39.6 µM
TGI (HT29 colon): 39.3 µM
TGI (UACC-62 melanoma): 36.7 µM
TGI (PC-3 prostate): 32.8 µM
TGI (A498 renal): 39.1 µM
TGI (EKVX NSCLC): 26.4 µM
TGI (SF-268 CNS): 45 µM
TGI (TK-10 renal): 35.5 µM
TGI (SF-539 CNS): 33.6 µM

CCCN1C(=O)/C(=C\c2ccc(OC)c(OC)c2)SC1=Nc1ccccc1
TGI (MDA-MB-231 breast): > 100 µM
TGI (NCI-H522 lung): > 100 µM
TGI (SN12C renal): > 100 µM
TGI (MCF7 breast): > 100 µM
TGI (OVCAR-4 ovarian): > 100 µM
TGI (SK-MEL-28 melanoma): > 100 µM
TGI (BT-549 breast): > 100 µM
TGI (HCT-116 colon): > 100 µM
TGI (NCI-H23 lung): > 100 µM
TGI (HOP-92 NSCLC): > 100 µM
TGI (HT29 colon): > 100 µM
TGI (UACC-62 melanoma): > 100 µM
TGI (PC-3 prostate): > 100 µM
TGI (A498 renal): > 100 µM
TGI (EKVX NSCLC): > 100 µM
TGI (SF-268 CNS): > 100 µM
TGI (TK-10 renal): 74.1 µM
TGI (SF-539 CNS): > 100 µM
